Results reported in patent US10413557B2, “Prodrugs of 17.BETA.-HSD1-inhibitors” (FORENDO PHARMA LTD, priority 2014, dated 2019).

Tests used:
[1] = target: T1, recombinant human 17β-HSD1 (Homo sapiens, UniProt P14061); assay: Inhibition of recombinant human 17β-HSD1 (conversion of 3H-estrone to estradiol, HPLC); assay type: biochemical; conditions: inhibitor 1 μM; 30 nM estrone, 1 mM NADPH, 30 min RT; read-out: 17β-HDS1 Inhibition % at 1 μM
T1 construct: made in house; host or cells: Sd9 (Sf9) insect cells, baculovirus (Bac to Bac Expression System)
T1 sequence (P14061 1-328): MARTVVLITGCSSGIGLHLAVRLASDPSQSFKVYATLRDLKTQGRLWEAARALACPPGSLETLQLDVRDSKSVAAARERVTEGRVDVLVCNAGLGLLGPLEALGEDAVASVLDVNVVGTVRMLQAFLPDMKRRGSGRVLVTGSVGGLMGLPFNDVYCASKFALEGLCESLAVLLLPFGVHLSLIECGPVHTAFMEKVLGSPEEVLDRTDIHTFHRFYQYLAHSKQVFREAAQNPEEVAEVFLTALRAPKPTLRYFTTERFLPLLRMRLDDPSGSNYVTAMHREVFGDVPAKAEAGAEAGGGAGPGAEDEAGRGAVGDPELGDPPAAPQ
Method: 17β-HSD1 production and isolation: Recombinant baculovirus was generated by the “Bac to Bac Expression System” (Invitrogen). Recombinant bacmid was transfected to Sd9 insect cells using “Cellfectin Reagent” (Invitrogen). 60 h later cells were harvested; the microsomal fraction was isolated as described by Puranen, T. J., Poutanen, M. H., Peltoketo, H. E., Vihko, P. T. and Vihko, R. K. (1994) Site-directed mutagenesis of the putative active site of human 17 β-hydroxysteroid dehydrogenase type 1. Biochem. J. 304: 289-293. Aliquots were stored frozen until determination of enzymatic activity.
Assay—Inhibition of recombinant human 17β-HSD1: Protein homogenate (0.1 μg/ml) was incubated in 20 mM KH2PO4 pH 7.4 with 30 nM estrone (including 800 000 cpm/ml of ^3H-estrone) and 1 mM NADPH for 30 min at RT, in the presence of the potential inhibitor at concentrations 1 μM or 0.1 μM. Inhibitor stock solutions were prepared in DMSO. Final concentration of DMSO was adjusted to 1% in all samples. The enzyme reaction was stopped by addition of 10% trichloroacetic acid (final concentration). Samples were centrifuged in a microtiter plate at 4000 rpm for 10 min. Supernatants were applied to reverse phase HPLC on a Waters Symmetry C18 column, equipped with a Waters Sentry Guard column. Isocratic HPLC runs were performed at RT at a flow rate of 1 ml/min in acetonitrile:water 48:52 as running solvent. Radioactivity was monitored in the eluate by a Packard Flow Scintillation Analyzer. Total radioactivity for estrone and estradiol were determined in each sample and percent conversion of estrone to estradiol was calculated according to the following formula:
(§1) Percent inhibition was calculated flowingly: % inhibition=100−% conversion

[2] = target: T2, recombinant human 17β-HSD2 (Homo sapiens, UniProt P37059); assay: Inhibition of recombinant human 17β-HSD2 (conversion of 3H-estradiol to estrone, HPLC); assay type: biochemical; conditions: inhibitor 1 μM; 50 nM estradiol, 1 mM NADH, 30 min RT
T2 construct: made in house; host or cells: Sd9 (Sf9) insect cells, baculovirus (Bac to Bac Expression System)
T2 sequence (P37059 1-387): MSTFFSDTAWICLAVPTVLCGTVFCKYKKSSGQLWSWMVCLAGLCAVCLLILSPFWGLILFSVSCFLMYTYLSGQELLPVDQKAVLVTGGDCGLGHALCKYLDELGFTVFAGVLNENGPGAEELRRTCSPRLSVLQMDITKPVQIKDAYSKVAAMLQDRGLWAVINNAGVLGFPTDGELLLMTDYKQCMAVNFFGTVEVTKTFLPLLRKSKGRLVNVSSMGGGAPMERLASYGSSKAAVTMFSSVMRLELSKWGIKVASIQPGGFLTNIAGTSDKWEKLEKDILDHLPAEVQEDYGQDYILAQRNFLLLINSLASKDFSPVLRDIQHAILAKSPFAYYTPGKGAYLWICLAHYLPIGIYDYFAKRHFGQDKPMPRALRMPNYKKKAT
Method: 17β-HSD2 production and isolation: Similarly to 17β-HSD1 the Recombinant baculovirus was generated by the “Bac to Bac Expression System” (Invitrogen). Recombinant bacmid was transfected to Sd9 insect cells using “Cellfectin Reagent” (Invitrogen). 60 h later cells were harvested and supernatant were fractionated by the following protocol: • cells were dissolved into 40 ml of A-buffer (40 mM TRIS, pH8.0, 20% glycerol, 20 μM NAD, 0.4 mM PMSF, 150 mM NaCl, 0.5% dodecyl-β-maltoside+protease inhibitor cocktail) • cells were sonicated • lysate was incubated on ice for 15 min • lysate was centrifuged 5000 rpm 15 min, +4° C. • centrifugation of the supernatant 180 000 g 30 min, +4° C. • pellet was dissolved into 8 ml of A-buffer • not resuspended material was removed by centrifugation 5000 rpm 15 min, +4° C. • the clear supernatant was divided into 100 μl aliquots and were stored frozen until determination of enzymatic activity.
The amount of 17β-HSD2 was analysed by immunoblotting and total protein concentration of each extract batch was determined.
Assay—Inhibition of recombinant human 17β-HSD2: Protein homogenate (4 μg/ml) was incubated in 20 mM KH2PO4 pH 8.5 with 50 nM estradiol (including 800 000 cpm/ml of ^3H-estradiol) and 1 mM […] for 30 min at RT, in the presence of the potential inhibitor at concentrations 1 μM or 0.1 μM. Inhibitor stock solutions were prepared in DMSO. Final concentration of DMSO was adjusted to 1% in all samples. The enzyme reaction was stopped by addition of 10% trichloroacetic acid (final concentration). Samples were centrifuged in a microtiter plate at 4000 rpm for 10 min. Supernatants were applied to reverse phase HPLC on a Waters Symmetry C18 column, equipped with a Waters Sentry Guard column. Isocratic HPLC runs were performed at RT at a flow rate ofl ml/min in acetonitrile:water 48:52 as running solvent. Radioactivity was monitored in the eluate by a Packard Flow Scintillation Analyzer. Total radioactivity for estrone and estradiol were determined in each sample and percent conversion of estradiol to estrone was calculated according to the following formula:
as §1

| SMILES | inhibition at 1 µM [1] [%] | inhibition at 1 µM [2] [%] |
| --- | --- | --- |
| CO/N=C1\C[C@@H](CCC(=O)Nc2ncc(C)s2)C2C3CCc4cc(O)c([N+](=O)[O-])cc4C3CC[C@]12C (stereo partly drawn) [VIV-2, 3-{(13S,15R)-3-Hydroxy-17-[(E)-methoxyimino]-13-methyl-2-nitro-7,8,9,11,12,13,14,15,16,17-decahydro-6H-cyclopenta[a]phenanthren-15-yl}-N-(5-methylthiazol-2-yl)propanamide] | 64 | 3 |
| CO/N=C1\C[C@@H](CCC(=O)Nc2ncc(C)s2)C2C3CCc4c(ccc(O)c4[N+](=O)[O-])C3CC[C@]12C (stereo partly drawn) [VIV-4, 3-{(13S,15R)-3-Hydroxy-17-[(E)-methoxyimino]-13-methyl-4-nitro-7,8,9,11,12,13,14,15,16,17-decahydro-6H-cyclopenta[a]phenanthren-15-yl}-N-(5-methylthiazol-2-yl)propanamide] | 90 | 16 |
| CO/N=C1\C[C@@H](CCC(=O)Nc2ncc(C)s2)C2C3CCc4cc(O)c(I)cc4C3CC[C@]12C (stereo partly drawn) [VIV-6, 3-{(13S,15R)-3-Hydroxy-2-iodo-17-[(E)-methoxyimino]-13-methyl-7,8,9,11,12,13,14,15,16,17-decahydro-6H-cyclopenta[a]phenanthren-15-yl}-N-(5-methylthiazol-2-yl)propanamide] | 90 | 0 |
| CO/N=C1\C[C@@H](CCC(=O)Nc2ncc(C)s2)C2C3CCc4c(ccc(O)c4I)C3CC[C@]12C (stereo partly drawn) [VIV-7, 3-{(13S,15R)-3-Hydroxy-4-iodo-17-[(E)-methoxyimino]-13-methyl-7,8,9,11,12,13,14,15,16,17-decahydro-6H-cyclopenta[a]phenanthren-15-yl}-N-(5-methylthiazol-2-yl)propanamide] | 81 | 0 |
| CO/N=C1\C[C@@H](CCC(=O)Nc2ncc(C)s2)C2C3CCc4c(cc(I)c(O)c4I)C3CC[C@]12C (stereo partly drawn) [VIV-8, 3-{(13S,15R)-3-Hydroxy-2,4-diiodo-17-[(E)-methoxyimino]-13-methyl-7,8,9,11,12,13,14,15,16,17-decahydro-6H-cyclopenta[a]phenanthren-15-yl}-N-(5-methylthiazol-2-yl)propanamide] | 61 | 2 |
| CO/N=C1\C[C@@H](CCC(=O)Nc2ncc(C)s2)C2C3CCc4c(ccc(O)c4Br)C3CC[C@]12C (stereo partly drawn) [VIV-10, 3-{(13S,15R)-4-Bromo-3-hydroxy-17-[(E)-methoxyimino]-13-methyl-7,8,9,11,12,13,14,15,16,17-decahydro-6H-cyclopenta[a]phenanthren-15-yl}-N-(5-methylthiazol-2-yl)propanamide] | 78 | 6 |
| CO/N=C1\C[C@@H](CCC(=O)Nc2ncc(C)s2)C2C3CCc4c(cc(Br)c(O)c4Br)C3CC[C@]12C (stereo partly drawn) [VIV-11, 3-{(13S,15R)-2,4-Dibromo-3-hydroxy-17-[(E)-methoxyimino]-13-methyl-7,8,9,11,12,13,14,15,16,17-decahydro-6H-cyclopenta[a]phenanthren-15-yl}-N-(5-methylthiazol-2-yl)propanamide] | 78 | 3 |
| CO/N=C1\C[C@@H](CCC(=O)Nc2ncc(C)s2)C2C3CCc4c(ccc(O)c4Cl)C3CC[C@]12C (stereo partly drawn) [VIV-13, 3-{(13S,15R)-4-Chloro-3-hydroxy-17-[(E)-methoxyimino]-13-methyl-7,8,9,11,12,13,14,15,16,17-decahydro-6H-cyclopenta[a]phenanthren-15-yl}-N-(5-methylthiazol-2-yl)propanamide] | 86 | 5 |
| CO/N=C1\C[C@@H](CCC(=O)Nc2ncc(C)s2)C2C3CCc4c(cc(Br)c(O)c4F)C3CC[C@]12C (stereo partly drawn) [VIV-17, 3-{(13S,15R)-2-Bromo-4-fluoro-3-hydroxy-17-[(E)-methoxyimino]-13-methyl-7,8,9,11,12,13,14,15,16,17-decahydro-6H-cyclopenta[a]phenanthren-15-yl}-N-(5-methylthiazol-2-yl)propanamide] | 83 | 2 |
| CO/N=C1\C[C@@H](CCC(=O)Nc2ncc(C)s2)C2C3CCc4c(cc(F)c(O)c4Br)C3CC[C@]12C (stereo partly drawn) [VIV-18, 3-{(13S,15R)-4-Bromo-2-fluoro-3-hydroxy-17-[(E)-methoxyimino]-13-methyl-7,8,9,11,12,13,14,15,16,17-decahydro-6H-cyclopenta[a]phenanthren-15-yl}-N-(5-methylthiazol-2-yl)propanamide] | 55 | 1 |
| CO/N=C1\C[C@@H](CCC(=O)Nc2ncc(C)s2)C2C3CCc4cc(O)c(C#N)cc4C3CC[C@]12C (stereo partly drawn) [VIV-19, 3-{(13S,15R)-3-hydroxy-17-[(E)-methoxyimino]-13-methyl-2-nitrile-7,8,9,11,12,13,14,15,16,17-decahydro-6H-cyclopenta[a]phenanthren-15-yl}-N-(5-methylthiazol-2-yl)propanamide] | 93 | 2 |
| CO/N=C1\C[C@@H](CCC(=O)Nc2ncc(C)s2)C2C3CCc4c(ccc(O)c4C#N)C3CC[C@]12C (stereo partly drawn) [VIV-20, 3-{(13S,15R)-3-hydroxy-17-[(E)-methoxyimino]-13-methyl-4-nitrile-7,8,9,11,12,13,14,15,16,17-decahydro-6H-cyclopenta[a]phenanthren-15-yl}-N-(5-methylthiazol-2-yl)propanamide] | 73 | 0 |
| Cc1cnc(NC(=O)CC[C@@H]2C/C(=N\O)[C@@]3(C)CCC4c5ccc(O)cc5CCC4C23)s1 (stereo partly drawn) [VIV-22, 3-{(13S,15R)-3-Hydroxy-17-[(E)-hydroxyimino]-13-methyl-7,8,9,11,12,13,14,15,16,17-decahydro-6H-cyclopenta[a]phenanthren-15-yl}-N-(5-methylthiazol-2-yl)propanamide] | 81 | 4 |
| Cc1cnc(NC(=O)CC[C@@H]2C/C(=N\O)[C@@]3(C)CCC4c5cc([N+](=O)[O-])c(O)cc5CCC4C23)s1 (stereo partly drawn) [VIV-23, 3-{(13S,15R)-3-Hydroxy-2-nitro-17-[(E)-hydroxyimino]-13-methyl-7,8,9,11,12,13,14,15,16,17-decahydro-6H-cyclopenta[a]phenanthren-15-yl}-N-(5-methylthiazol-2-yl)propanamide] | 95 | 6 |
